Laboratory results reported in patent publication US12138625B2, “Screening kit and method” (CELLPLY S.R.L., priority 2016, dated 2024).

Legend:
[1] = tested on: Jurkat cells; assay: calcium signal (Fluo-4) of Jurkat cells after stimulation in open microwells; format: cell-based, human; conditions: Fluo-4 fluorescence, OKT3 10 μg/mL, average of a series of 3 experiments
Method: Cells from the Jurkat cell line (human Leukemic T cells) were obtained from ATCC and cultured in RPMI 1640 medium supplemented with 10% inactivated FBS medium, 10 mM Hepes, 2 mM Ultraglutamine and 1 mM sodium pyruvate, 1% Penicillin/Streptomycin in 25 cm^2 flasks at 37° C. and 5% CO2.
The OKT3 hybridomas were cultured in bioreactors (CellLine, Integra Biosciences) in complete RPMI 1640 medium containing 3% FBS and the supernatant was collected 2 times a week. The purification of monoclonal antibodies was performed using a double saturated ammonium sulfate precipitation at 30% and 50%, followed by dialysis in PBS. The purity of OKT3 was assessed by SDS-PAGE gel and the amount of antibody was determined through NanoDrop (Thermo Scientific). The antibody was then frozen at −80° C. before use.
For the assay in open microwells according to the present invention, Jurkat cells were labeled with Fluo-4 20 μM in HBSS, centrifuged and resuspended in serum-free medium (RPMI 1640 with 25 mM Hepes or HBSS) at a concentration of 1.6×10^6 cells/mL in 1.5 mL Eppendorf tubes used as input reservoirs for the open reversed microwell system. […] The images were acquired by a camera connected to the microscope at a distance of 1 minute and processed by software developed in LabView, quantifying the dynamic performance of the same signal on each sample cell.

[2] = tested on: SU-DHL-4 cancer cells; assay: open well assay of Rituximab on SU-DHL-4 lymphoma cells (Calcein-AM / PI, time-lapse); format: cell-based; conditions: Rituximab 10 μg/mL, human serum 1%, PI 5 μM; versus CTRL; FIG. 11A
Method: Cells: SU-DHL-4 lymphoma cells and Raji cells were used (ATCC CCL-86). 3·10^5 cells/mL were cultured in RPMI medium supplemented with 10% FBS, 1% […]/streptomycin at 37° C., 95% RH, 5% CO2. The cells were amplified, dividing them when in confluence. PBMC were isolated from blood by centrifugation in gradient. Whole blood from healthy donors was collected into tubes treated with anticoagulants according to the directive “ethical principles and guidelines for the protection of humans in research”. Isolated PBMC were washed twice with 10 mL cold HBSS after lysis of red blood cells. The concentration of cells and their viability was determined with Trypan Blue on haemocytometer. The concentration was adjusted to 1 million cells/mL.
Different batches of SU-DHL-4 or Raji cells were harvested at the peak of their growth, washed with PBS and counted in a hemocytometer with Trypan Blue. The cell concentration was adjusted to 1 million cells/mL and they were labeled with Calcein AM (CAM) 5 nM for flow cytometry and 250 nM for the assay according to the present invention. […] Cell viability was finally assessed by PI and flow cytometry. […]
The images were acquired in brightfield (BF) to evaluate the morphological characteristics and then in fluorescence to evaluate the signal in DAPI bands (ex: 360/40 nm, em: 460/50 nm), FITC (ex: 480/30 nm, em: 535/40 nm), TRITC (ex: 540/25 nm, em: 605/55 nm). […]

Row | Substance | increase of the signal peak, compared to the baseline value [1] [%+/−90%] | dead cells (PI, TRITC channel) in time-lapse images [2]
1 | OKT3: monoclonal antibody purified from OKT3 hybridoma supernatant | 178 | 
2 | RTX: monoclonal antibody Rituximab |  | present only at T2 and T3 in the RTX group
